Experimental data taken from US10654867B2 (Genentech, Inc., priority 2016, dated 2020).

Biological target: T1, estrogen receptor alpha (ESR1) in MCF7 breast cancer cells (Homo sapiens, UniProt P03372)
T1 sequence (P03372 1-595): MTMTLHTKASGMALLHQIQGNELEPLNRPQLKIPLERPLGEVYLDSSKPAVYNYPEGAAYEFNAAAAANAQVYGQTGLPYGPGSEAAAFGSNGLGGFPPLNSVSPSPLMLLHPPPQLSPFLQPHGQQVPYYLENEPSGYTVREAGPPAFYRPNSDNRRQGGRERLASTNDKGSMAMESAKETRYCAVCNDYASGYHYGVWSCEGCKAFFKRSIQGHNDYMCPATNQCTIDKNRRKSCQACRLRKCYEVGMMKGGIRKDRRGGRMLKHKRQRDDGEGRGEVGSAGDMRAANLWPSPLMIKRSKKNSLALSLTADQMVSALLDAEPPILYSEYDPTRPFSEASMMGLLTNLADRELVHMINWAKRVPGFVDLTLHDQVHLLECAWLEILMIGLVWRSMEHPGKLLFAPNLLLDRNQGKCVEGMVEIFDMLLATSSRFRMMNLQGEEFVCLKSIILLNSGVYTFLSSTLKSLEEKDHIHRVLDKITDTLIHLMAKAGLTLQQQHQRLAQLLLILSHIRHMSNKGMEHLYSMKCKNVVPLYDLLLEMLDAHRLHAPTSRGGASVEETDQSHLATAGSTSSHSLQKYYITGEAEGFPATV
Test: Breast Cancer Cell ERa High Content Fluorescence Imaging Degradation Assay (ER-alpha MCF7 HCS)
Format: cell-based
Design: endogenous in cells; host or cells: MCF7 breast cancer cells; key to ERalpha (WT) MCF7HCS (Sinf): % change in ERα level; DMSO = 0%, fulvestrant = 100% change
Conditions: 4 hours, plateau of the maximal effect; for ER-alpha MCF7HCS Sinf: DMSO and fulvestrant define 0% and 100% change in ESR1, Table 1a; for ERalpha (WT) MCF7HCS (Sinf): DMSO and fulvestrant define 0% and 100% change in ESR1, Table 1b
Procedure: All of the exemplary Formula I, II, and III compounds in Tables 1a and 1b were made and characterized by LCMS [M+H]^+ (liquid chromatography mass spectroscopy) with detection of parent ion. All of the exemplary Formula I, II, and III compounds in Tables 1a and 1b were tested for binding to ERa (Estrogen Receptor alpha) and biological activity according to the assays, protocols, and procedures of Examples 901-907. ER-alpha MCF7 HCS Sinf (%) values in Tables 1a and 1b were measured by the Breast Cancer Cell ERa High Content Fluorescence Imaging Degradation Assay of Example 901. ER-alpha MCF7 HCS EC50 (μM) values in Tables 1a and 1b were measured by the in vitro cell proliferation assays described in Examples 902 and 903. The rat uterine wet weight assays of Examples 906 and 907 allow rapid determination of compound antagonist activity in an ER responsive tissue (immature rat uterus) while competing against the native ER ligand estradiol, i.e. antagonist mode (Ashby, J.; et al (1997) Regulatory toxicology and pharmacology: RTP, 25 (3):226-31). Exemplary Formula I, II, and III compounds in Tables 1a and 1b have the following structures, corresponding names (ChemBioDraw, Version 12.0.2, CambridgeSoft Corp., Cambridge Mass.), and biological activity. Where more than one name is associated with a Formula I, II, and III compound or intermediate, the chemical structure shall define the compound.
MCF7 breast cancer cells were seeded on day 1 at a density of 10,000 cells per well in 384 well poly-lysine coated tissue culture plate (Greiner # T-3101-4), in 50 μL/well RPMI (phenol red free), 10% FBS (Charcoal stripped), containing L-glutamine. On day 2, compounds were prepared at 2 compound source concentrations: 100 μM and 1 μM (ultimately to give 2 overlapping titration curves), in a Labcyte low dead volume plate, 10 μL/well, and 10 μL of DMSO in designated wells for backfill, and 5 μM Fulvestrant (control compound) in designated wells. Compounds and controls were dispensed using a Labcyte Echo acoustic dispenser to dispense compounds with a predefined serial dilution (1.8×, 10 point, in duplicate) and appropriate backfill and control compounds (final total volume transferred was 417.5 nL and compound dispense volume ranges from 2.5 nL to 417.5 nL; 0.84% DMSO (v/v) final), ultimately producing a concentration range from 0.05 nM to 835 nM. Cell plates were incubated at 37° C., for 4 hours. Fixation and permeabilization were carried out using a Biotek EL406 plate washer and dispenser as follows. Cells were fixed by addition of 15 μL of 16% paraformaldehyde (Electron Microscopy Sciences #15710-S) directly to the 50 μL cell culture medium in each well using the peristaltic pump 5 μL cassette on a Biotek EL406 (final concentration of formaldehyde was 3.7% w/v). Samples were incubated 30 minutes. Well contents was aspirated and 50 μL/well of Phosphate Buffered Saline (PBS) containing 0.5% w/v bovine serum albumen, 0.5% v/v Triton X-100 (Antibody Dilution Buffer) was added to each well. Samples were incubated for 30 minutes. Well contents were aspirated and washed 3 times with 100 μL/well of PBS. Immunofluorescence staining of estrogen receptor alpha (ESR1) was carried out using a Biotek EL406 plate washer and dispenser as follows. The well supernatant was aspirated from the wells and 25 μL/well of anti-ESR1 mAb (F10) (Santa Cruz sc-8002) diluted 1:1000 in Antibody Dilution Buffer was dispensed. Samples were incubated for 2 hours at room temperature. Samples were washed 4 times with 100 μL/well of PBS. 25 uL (microliters)/well of secondary antibody solution (Alexafluor 488 conjugate anti-mouse IgG (LifeTechnologies # A21202) diluted 1:1000 and Hoechst 33342 1 μg/ml diluted in Antibody Dilution Buffer) were dispensed into each well. Samples were incubated for 2 hours at room temperature. Samples were washed 3 times with 100 μL/well of PBS using a Biotek EL406. Quantitative fluorescence imaging of ESR1 was carried out using a Cellomics Arrayscan V (Thermo). […]

| SMILES | ER-alpha MCF7HCS Sinf [%] | ERalpha (WT) MCF7HCS (Sinf) |
| --- | --- | --- |
| C[C@@H]1Cc2c([nH]c3ccccc23)[C@]2(CCc3cc(OCCN4CC(CF)C4)ccc32)N1CC(C)(C)F [Example 113, (1R,3′R)-2′-(2-fluoro-2-methylpropyl)-5-(2-(3-(fluoromethyl)azetidin-1-yl)ethoxy)-3′-methyl-2,2′,3,3′,4′,9′-hexahydrospiro[indene-1,1′-pyrido[3,4-b]indole]] | −94.7 | – |
| C[C@@H]1CN(CC(C)(C)F)[C@@H](c2c(F)cc(OCCN3CC(CF)C3)cc2F)c2[nH]c3ccccc3c21 (single isomer, unassigned) [Example 109] | −74.6 | – |
| C[C@@H]1Cc2c([nH]c3ccccc23)[C@]2(CCc3cc(OCCN4CC(CF)C4)ccc32)N1CC(F)(F)F [Example 114, (1R,3′R)-5-(2-(3-(fluoromethyl)azetidin-1-yl)ethoxy)-3′-methyl-2′-(2,2,2-trifluoroethyl)-2,2′,3,3′,4′,9′-hexahydrospiro [indene-1,1′-pyrido [3,4-b]indole]] | −96.6 | – |
| C[C@@H]1CCN(CC(C)(C)F)[C@H](c2c(F)cc(OCCN3CC(CF)C3)cc2F)c2[nH]c3ccccc3c21 [Example 123, (1R,5R)-1-(2,6-difluoro-4-(2-(3-(fluoromethyl)azetidin-1-yl)ethoxy)phenyl)-2-(2-fluoro-2-methylpropyl)-5-methyl-1,2,3,4,5,10-hexahydroazepino[3,4-b]indole] | −96.9 | – |
| C[C@@H]1Cn2c(cc3ccccc32)[C@@H](c2c(F)cc(OC3CN(CCCF)C3)cc2F)N1CC(C)(F)CO (stereo partly drawn) [Example 122, 3-((1R,3R)-1-(2,6-Difluoro-4-((1-(3-fluoropropyl)azetidin-3-yl)oxy)phenyl)-3-methyl-3,4-dihydropyrazino[1,2-a]indol-2(1H)-yl)-2-fluoro-2-methylpropan-1-ol] | −97 | – |
| C[C@H]1CN(CC(C)(C)F)[C@H](c2c(F)cc(OCCN3CC(CF)C3)cc2F)c2[nH]c3ccccc3c21 (single isomer, unassigned) [Example 107] | −97.8 | – |
| C[C@@H]1CN(CC(C)(C)F)[C@H](c2c(F)cc(OCCN3CC(CF)C3)cc2F)c2[nH]c3ccccc3c21 (single isomer, unassigned) [Example 108] | −92.4 | – |
| CC(C)(F)C(=O)N1CCCc2c([nH]c3ccccc23)[C@H]1c1c(F)cc(OCCN2CC(CF)C2)cc1F [Example 106, (R)-1-(1-(2,6-difluoro-4-(2-(3-(fluoromethyl)azetidin-1-yl)ethoxy)phenyl)-3,4,5,10-tetrahydroazepino[3,4-b]indol-2(1H)-yl)-2-fluoro-2-methylpropan-1-one] | −35 | – |
| C[C@@H]1Cc2c([nH]c3ccccc23)[C@@]2(CCc3cc(OCCN4CC(CF)C4)ccc32)N1CC(F)(F)F [Example 115, (1S,3′R)-5-(2-(3-(fluoromethyl)azetidin-1-yl)ethoxy)-3′-methyl-2′-(2,2,2-trifluoroethyl)-2,2′,3,3′,4′,9′-hexahydrospiro [indene-1,1′-pyrido [3,4-b]indole]] | −98 | – |

Second part, the molecule after the results:

| ER-alpha MCF7HCS Sinf [%] | ERalpha (WT) MCF7HCS (Sinf) | SMILES |
| --- | --- | --- |
| −102 | – | C[C@@H]1Cc2c(sc3ccccc23)[C@@H](c2c(F)cc(NC3CN(CCCF)C3)cc2F)N1CC(F)(F)CO (single isomer, unassigned) [Example 159] |
| −51 | – | C[C@H]1Cc2[nH]c3ccccc3c2[C@H](c2c(F)cc(OCCN3CC(CF)C3)cc2F)N1CC(C)(C)F (single isomer, unassigned) [Example 136] |
| −96 | – | CC1(C)CN(CC(F)(F)CO)[C@H](c2c(F)cc(NC3CN(CCCF)C3)cc2F)c2[nH]c3ccccc3c21 [Example 142, (R)-3-(1-(2,6-difluoro-4-(1-(3-fluoropropyl)azetidin-3-ylamino)phenyl)-4,4-dimethyl-3,4-dihydro-1H-pyrido[3,4-b]indol-2(9H)-yl)-2,2-difluoropropan-1-ol] |
| −88.8 | – | C[C@H]1Cc2c(oc3ccccc23)[C@H](c2c(F)cc(NC3CN(CCCF)C3)cc2F)N1CC(F)(F)CO (single isomer, unassigned) [Example 158] |
| – | −92.3 | C[C@H]1Cc2sc3ccccc3c2[C@H](c2c(F)cc(NC3CN(CCCF)C3)cc2F)N1CC(F)(F)CO [Example 165, 3-((1S,3S)-1-(2,6-difluoro-4-((1-(3-fluoropropyl)azetidin-3-yl)amino)phenyl)-3-methyl-3,4-dihydrobenzo[4,5]thieno[3,2-c]pyridin-2(1H)-yl)-2,2-difluoropropan-1-ol] |
| −94.5 | – | C[C@@H]1Cc2c([nH]c3cccnc23)[C@@H](c2c(F)cc(OC3CN(CCCF)C3)cc2F)N1CC(C)(C)F [Example 133, (6R,8R)-6-{2,6-Difluoro-4-[2-(3-fluoromethyl-azetidin-1-yl)-ethoxy]-phenyl}-7-(2-fluoro-2-methyl-propyl)-8-methyl-6,7,8,9-tetrahydro-5H-dipyrido[3,2-b;4′,3′-d]pyrrole] |
| −97.4 | – | C[C@@H]1Cc2[nH]c3ccccc3c2[C@@H](c2c(F)cc(NC3CN(CCCF)C3)cc2F)N1CC(F)(F)CO (single isomer, unassigned) [Example 155] |
| −30 | – | C[C@H]1Cc2[nH]c3ccccc3c2[C@H](c2c(F)cc(NC3CN(CCCF)C3)cc2F)N1CC(F)(F)CO (single isomer, unassigned) [Example 154] |
| −96.9 | – | C[C@H]1Cc2c(sc3ccccc23)[C@H](c2c(F)cc(NC3CN(CCCF)C3)cc2F)N1CC(F)(F)CO (single isomer, unassigned) [Example 160] |
| −75 | – | CC1Cc2[nH]c3ccccc3c2C(c2c(F)cc(NC3CN(CCCF)C3)cc2F)N1CCF (centres unmarked) [Example 149, (□)-N-(3,5-difluoro-4-(2-(2-fluoroethyl)-3-methyl-2,3,4,5-tetrahydro-1H-pyrido[4,3-b]indol-1-yl)phenyl)-1-(3-fluoropropyl) azetidin-3-amine] |
| – | −97 | C[C@H]1Cc2oc3ccccc3c2[C@H](c2c(F)cc(OCCN3CC(CF)C3)cc2F)N1CC(C)(C)F (stereo in doubt) [Example 168, 1-(2,6-difluoro-4-(2-(3-(fluoromethyl)azetidin-1-yl)ethoxy)phenyl)-2-(2-fluoro-2-methylpropyl)-3-methyl-1,2,3,4-tetrahydrobenzofuro [3,2-c]pyridine] |
